This is an account of results in paper PMC6092513, “Mechanisms Underlying the Strong Inhibition of Muscle-Type Nicotinic Receptors by Tetracaine” (Frontiers in Molecular Neuroscience, 2018).

Each structure is given as a SMILES string. pEC50, pIC50: −log10 of the molar value.

Assay [1] deals with T1, muscle-type nicotinic acetylcholine receptor (nAChR) (Torpedo marmorata, UniProt P02711+Q6S3H8+Q6S3H9+Q6S3I0).
T1 construct: gene CHRNA1; native heteropentameric receptor purified from electroplaques, reconstituted in asolectin lipids and transplanted to Xenopus oocytes; with beta1, gamma and delta nAChR subunits (CHRNB1, CHRNG, CHRND) with two alpha1
T1 sequence (P02711 25-461): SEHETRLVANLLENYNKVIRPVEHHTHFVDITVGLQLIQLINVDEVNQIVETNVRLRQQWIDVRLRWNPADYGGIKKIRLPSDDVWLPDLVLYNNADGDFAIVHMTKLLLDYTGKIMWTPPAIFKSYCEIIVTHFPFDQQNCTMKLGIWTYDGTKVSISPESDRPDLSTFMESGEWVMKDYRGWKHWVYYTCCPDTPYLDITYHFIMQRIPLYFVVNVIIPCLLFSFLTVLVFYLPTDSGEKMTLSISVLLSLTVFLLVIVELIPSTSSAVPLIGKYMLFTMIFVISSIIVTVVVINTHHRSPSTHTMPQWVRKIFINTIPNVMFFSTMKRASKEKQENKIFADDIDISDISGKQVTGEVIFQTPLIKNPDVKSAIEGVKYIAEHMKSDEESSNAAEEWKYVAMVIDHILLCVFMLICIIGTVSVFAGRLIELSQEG
T1 sequence (Q6S3I0 25-493): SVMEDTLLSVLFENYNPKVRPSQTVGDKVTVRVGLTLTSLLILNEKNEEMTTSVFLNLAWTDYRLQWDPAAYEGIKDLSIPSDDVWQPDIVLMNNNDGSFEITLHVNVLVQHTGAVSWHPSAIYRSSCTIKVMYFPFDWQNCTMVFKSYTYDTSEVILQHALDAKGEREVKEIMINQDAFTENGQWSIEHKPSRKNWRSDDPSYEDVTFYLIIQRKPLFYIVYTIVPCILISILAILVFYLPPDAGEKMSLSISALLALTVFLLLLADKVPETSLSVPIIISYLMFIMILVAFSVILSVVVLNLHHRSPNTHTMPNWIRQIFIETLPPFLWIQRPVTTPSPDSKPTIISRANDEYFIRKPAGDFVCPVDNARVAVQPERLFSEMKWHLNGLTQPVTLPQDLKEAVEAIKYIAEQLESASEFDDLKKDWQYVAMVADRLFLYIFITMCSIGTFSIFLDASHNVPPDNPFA
T1 sequence (Q6S3H9 18-505): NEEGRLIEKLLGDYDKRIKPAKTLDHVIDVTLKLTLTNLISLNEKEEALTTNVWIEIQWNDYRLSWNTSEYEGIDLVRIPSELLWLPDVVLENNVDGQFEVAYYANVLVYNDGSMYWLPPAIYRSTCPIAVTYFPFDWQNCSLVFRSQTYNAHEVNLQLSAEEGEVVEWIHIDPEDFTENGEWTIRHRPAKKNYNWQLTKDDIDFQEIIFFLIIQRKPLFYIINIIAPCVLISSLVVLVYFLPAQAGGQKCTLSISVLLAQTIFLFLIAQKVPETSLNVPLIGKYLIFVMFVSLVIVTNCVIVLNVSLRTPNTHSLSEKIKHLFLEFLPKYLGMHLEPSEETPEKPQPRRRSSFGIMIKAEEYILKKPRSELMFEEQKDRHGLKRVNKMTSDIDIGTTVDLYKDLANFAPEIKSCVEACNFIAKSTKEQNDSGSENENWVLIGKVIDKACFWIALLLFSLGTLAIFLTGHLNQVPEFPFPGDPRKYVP
T1 sequence (Q6S3H8 22-522): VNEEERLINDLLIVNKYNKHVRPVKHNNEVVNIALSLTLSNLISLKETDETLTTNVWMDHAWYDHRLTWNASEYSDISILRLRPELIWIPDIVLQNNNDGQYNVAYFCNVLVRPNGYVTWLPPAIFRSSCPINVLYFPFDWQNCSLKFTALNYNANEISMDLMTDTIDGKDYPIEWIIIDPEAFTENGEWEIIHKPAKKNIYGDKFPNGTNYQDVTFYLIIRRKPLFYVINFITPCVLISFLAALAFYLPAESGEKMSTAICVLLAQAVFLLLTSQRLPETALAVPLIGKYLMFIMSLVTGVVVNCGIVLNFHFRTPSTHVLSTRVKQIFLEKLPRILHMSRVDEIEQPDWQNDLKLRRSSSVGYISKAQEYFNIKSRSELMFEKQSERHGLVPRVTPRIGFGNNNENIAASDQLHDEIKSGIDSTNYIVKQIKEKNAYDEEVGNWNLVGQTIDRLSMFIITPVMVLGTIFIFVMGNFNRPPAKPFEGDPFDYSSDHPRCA
Briefly: two-electrode voltage clamp, ACh concentration-current curve in Xenopus oocytes bearing transplanted nAChRs. It is filed as cell-based.

Assay [2] concerns the target T1, muscle-type nicotinic acetylcholine receptor (nAChR). Briefly: two-electrode voltage clamp of ACh-elicited peak currents ([…] ACh) in Xenopus oocytes bearing transplanted nAChRs. It is filed as cell-based. On the technique in general: Two-electrode voltage clamp holds a large cell at a set potential and records current.

What is called pEC50 is the negative decadic logarithm of the EC50, by convention in mol/L. A high value points to a small EC50. In the case of `CC(=O)OCC[N+](C)(C)C` [ACh, acetylcholine], the pEC50 in assay [1] was 4.43.

By pIC50 is commonly meant the IC50 on a negative log10 scale, so that one unit is a factor of ten. A high value points to a low IC50. With `CCCCNc1ccc(C(=O)OCCN(C)C)cc1` [Ttc, 2-(dimethylamino)ethyl 4-(butylamino)benzoate], in assay [2], the pIC50 is 6.15.
